In paper PMC10410440, “Preclinical PK investigation of a novel IDO1/TDO dual inhibitor—SHR9146 in mouse plasma and tissues by LC-MS/MS” (Frontiers in Oncology, 2023):
Where “and” joins values, the source holds several entries; their conditions need not be identical. Equal values may be shown once. Read-outs that look alike come from different tables or passages of the source.

Assay: Tissue distribution of SHR9146 in mice after oral gavage of 40 mg/kg
Format: in vivo, ICR mice
Conditions: female, 40 mg/kg oral gavage; for concentration at 1 h / concentration at 3 h / concentration at 6 h / concentration at 24 h: ICR, mouse, po
Method: ICR mice with body weight 16–26 g were supplied by Shanghai Lingchang Biotechnology Co., Ltd. (animal breeding license number SCXK (Shanghai) 2013-0018) and housed at Shanghai Institute of Materia Medica, Chinese Academy of Sciences [animal use license number SYXK (Shanghai) 2015-0027]. The mice used in this study were fasted overnight for 12 h but had free access to water. Food was supplied 4 h post-dose. All experiments in this study were conducted in accordance with the Guidelines for the Care and Use of Laboratory Animals of Shanghai Institute of Materia Medica, Chinese Academy of Sciences.
Another set of 30 mice were randomly assigned into five groups with equal numbers, males and females, for tissue distribution study with oral gavage at a single dose of 40 mg/kg at predetermined different time points: pre-dose and post dose at 1, 3, 6, and 24 h, respectively. The whole brain, heart, liver, spleen, lung, kidney, bladder, pancreas, testis, ovary, uterus, stomach, small intestine, adrenal gland, skin, skeletal muscle, thyroid gland, and abdominal fat tissues as well as the whole blood and plasma samples were harvested. Tissue samples were washed with 0.9% sodium chloride solution to remove the residual blood or contents, blotted on a filter paper, and stored at −70°C prior to the analysis.
Protein precipitation was selected for the pretreatment of both the plasma and the tissue homogenate prepared after thawing at room temperature, cut into pieces, and homogenized with a quintuple methanol–water mixture (1:1, v/v) for each tissue sample.
Briefly as follows, an aliquot of 25-μL plasma or tissue homogenate was spiked with 100 μL of internal standard solution (1 μg/mL for plasma, 0.2 μg/mL for tissue homogenate) and 300 μL of methanol added and vortex mixed for 60 s. The mixture was then centrifuged at 14,000 rpm at 4°C for 5.0 min, and the supernatant was diluted with methanol–water (4:1, v/v) in a ratio of 1:9 for the plasma or 1:1 for the tissue homogenate, and 5 μL of the resulting solution was injected for the LC-MS/MS analysis.
After oral administration of 40 mg/kg SHR9146, samples in different tissues at predetermined time points (pre-drug administration, post-drug administration at 1, 3, 6, and 24 h) were collected and prepared for the analysis. The drug concentrations of SHR9146 (μg/g or μg/mL) were determined for each mouse, and the mean and standard deviation were further obtained (Table S7).

[1] = 24 h, individual mice, 40 mg/kg

SHR9146 concentration in Bladder (1 h, individual mice, 40 mg/kg): 21.036 µg/g and 16.223 µg/g | SHR9146 concentration in Kidney (1 h, individual mice, 40 mg/kg): 18.490 µg/g and 14.219 µg/g | SHR9146 concentration in Liver (1 h, individual mice, 40 mg/kg): 26.622 µg/g and 23.393 µg/g | SHR9146 concentration in Lung (1 h, individual mice, 40 mg/kg): 20.029 µg/g and 15.217 µg/g | SHR9146 concentration in Pancreas (1 h, individual mice, 40 mg/kg): 22.508 µg/g and 15.532 µg/g | SHR9146 concentration in Small intestine (1 h, individual mice, 40 mg/kg): 22.755 µg/g and 23.199 µg/g | SHR9146 concentration in Small intestine (3 h, individual mice, 40 mg/kg): 22.446 µg/g and 12.038 µg/g | SHR9146 concentration in Adrenal gland (6 h, individual mice, 40 mg/kg): 4.009 µg/g and 0.427 µg/g and 1.219 µg/g | SHR9146 concentration in Bladder (6 h, individual mice, 40 mg/kg): 1.685 μg/g and BLQ and 0.201 μg/g | SHR9146 concentration in Brain (6 h, individual mice, 40 mg/kg): BLQ | SHR9146 concentration in Kidney (6 h, individual mice, 40 mg/kg): 3.007 µg/g and 0.546 µg/g and 0.744 µg/g | SHR9146 concentration in Liver (6 h, individual mice, 40 mg/kg): 4.132 µg/g and 0.621 µg/g and 1.090 µg/g | SHR9146 concentration in Lung (6 h, individual mice, 40 mg/kg): 2.446 µg/g and 0.717 µg/g and 0.984 µg/g | SHR9146 concentration in Ovary (6 h, individual mice, 40 mg/kg): BLQ | SHR9146 concentration in Pancreas (6 h, individual mice, 40 mg/kg): 1.674 µg/g and 0.089 µg/g and 0.150 µg/g | SHR9146 concentration in Skeletal muscle (6 h, individual mice, 40 mg/kg): BLQ | SHR9146 concentration in Small intestine (6 h, individual mice, 40 mg/kg): 1.815 µg/g and 0.395 µg/g and 0.288 µg/g | SHR9146 concentration in Spleen (6 h, individual mice, 40 mg/kg): BLQ | SHR9146 concentration in Uterus (6 h, individual mice, 40 mg/kg): BLQ | SHR9146 concentration in Whole blood (6 h, individual mice, 40 mg/kg): BLQ | SHR9146 concentration in Abdominal fat (24 h, individual mice): BLQ | SHR9146 concentration in Bladder (24 h, individual mice): BLQ | SHR9146 concentration in Brain (24 h, individual mice): BLQ | SHR9146 concentration in Heart (24 h, individual mice): BLQ | SHR9146 concentration in Kidney (24 h, individual mice): BLQ | SHR9146 concentration in Ovary (24 h, individual mice): BLQ | SHR9146 concentration in Pancreas (24 h, individual mice): BLQ | SHR9146 concentration in Plasma (24 h, individual mice): BLQ | SHR9146 concentration in Skeletal muscle (24 h, individual mice): BLQ | SHR9146 concentration in Skin (24 h, individual mice): BLQ | SHR9146 concentration in Small intestine (24 h, individual mice): BLQ | SHR9146 concentration in Spleen (24 h, individual mice): BLQ | SHR9146 concentration in Uterus (24 h, individual mice): BLQ | SHR9146 concentration in Whole blood (24 h, individual mice): BLQ | SHR9146 concentration in thyroid gland (24 h, individual mice): BLQ | SHR9146 concentration in Adrenal gland [1]: 0.185 µg/g | SHR9146 concentration in Liver [1]: BLQ and 0.058 μg/g | SHR9146 concentration in Lung [1]: 0.151 µg/g and 0.191 µg/g | concentration at 1 h (abdominal fat, 40 mg/kg, 1 h, Mean (n=3), read-out: SHR9146 concentration in Abdominal fat): 13500 ng/g | concentration at 1 h (abdominal fat, 40 mg/kg, 1 h, individual mice, read-out: SHR9146 concentration in Abdominal fat): 11600 ng/g | concentration at 3 h (abdominal fat, 40 mg/kg, 3 h, Mean (n=3), read-out: SHR9146 concentration in Abdominal fat): 8930 ng/g | concentration at 6 h (abdominal fat, 40 mg/kg, 6 h, Mean (n=3), read-out: SHR9146 concentration in Abdominal fat): 416 ng/g | concentration at 1 h (adrenal gland, 40 mg/kg, 1 h, Mean (n=3), read-out: SHR9146 concentration in Adrenal gland): 36600 ng/g | concentration at 1 h (adrenal gland, 40 mg/kg, 1 h, individual mice, read-out: SHR9146 concentration in Adrenal gland): 31300 ng/g | concentration at 3 h (adrenal gland, 40 mg/kg, 3 h, Mean (n=3), read-out: SHR9146 concentration in Adrenal gland): 27800 ng/g | concentration at 6 h (adrenal gland, 40 mg/kg, 6 h, Mean (n=3), read-out: SHR9146 concentration in Adrenal gland): 1880 ng/g | concentration at 24 h (adrenal gland, 40 mg/kg, 24 h, Mean (n=3), read-out: SHR9146 concentration in Adrenal gland): 195 ng/g | concentration at 24 h (adrenal gland, 40 mg/kg, 24 h, individual mice, read-out: SHR9146 concentration in Adrenal gland): 214 ng/g | concentration at 1 h (bladder, 40 mg/kg, 1 h, Mean (n=3), read-out: SHR9146 concentration in Bladder): 16800 ng/g | concentration at 1 h (bladder, 40 mg/kg, 1 h, individual mice, read-out: SHR9146 concentration in Bladder): 13200 ng/g | concentration at 3 h (bladder, 40 mg/kg, 3 h, Mean (n=3), read-out: SHR9146 concentration in Bladder): 10500 ng/g | concentration at 6 h (bladder, 40 mg/kg, 6 h, Mean (n=3), read-out: SHR9146 concentration in Bladder): 629 ng/g | concentration at 1 h (brain, 40 mg/kg, 1 h, Mean (n=3), read-out: SHR9146 concentration in Brain): 2370 ng/g | concentration at 1 h (brain, 40 mg/kg, 1 h, individual mice, read-out: SHR9146 concentration in Brain): 2190 ng/g | concentration at 3 h (brain, 40 mg/kg, 3 h, Mean (n=3), read-out: SHR9146 concentration in Brain): 1560 ng/g | concentration at 6 h (brain, 40 mg/kg, 6 h, Mean (n=3), read-out: SHR9146 concentration in Brain): 87 ng/g | concentration at 6 h (brain, 40 mg/kg, 6 h, individual mice, read-out: SHR9146 concentration in Brain): 261 ng/g | concentration at 1 h (heart, 40 mg/kg, 1 h, Mean (n=3), read-out: SHR9146 concentration in Heart): 9540 ng/g | concentration at 1 h (heart, 40 mg/kg, 1 h, individual mice, read-out: SHR9146 concentration in Heart): 7410 ng/g | concentration at 3 h (heart, 40 mg/kg, 3 h, Mean (n=3), read-out: SHR9146 concentration in Heart): 7040 ng/g | concentration at 6 h (heart, 40 mg/kg, 6 h, Mean (n=3), read-out: SHR9146 concentration in Heart): 334 ng/g | concentration at 1 h (kidney, 40 mg/kg, 1 h, Mean (n=3), read-out: SHR9146 concentration in Kidney): 15300 ng/g
Compound: OCCn1cc(-c2ccc(N3CCC([C@H]4c5c(F)cccc5-c5cncn54)CC3)cc2)cn1 [SHR9146]
SHR9146 concentration in Bladder (3 h, individual mice, 40 mg/kg): 10.878 µg/g and 14.604 µg/g and 5.984 µg/g | SHR9146 concentration in Kidney (3 h, individual mice, 40 mg/kg): 12.786 µg/g and 17.400 µg/g and 8.011 µg/g | SHR9146 concentration in Liver (3 h, individual mice, 40 mg/kg): 20.374 µg/g and 27.066 µg/g and 11.815 µg/g | SHR9146 concentration in Lung (3 h, individual mice, 40 mg/kg): 12.019 µg/g and 16.499 µg/g and 48.938 µg/g | SHR9146 concentration in Pancreas (3 h, individual mice, 40 mg/kg): 13.466 µg/g and 17.374 µg/g and 6.520 µg/g
